Literature values, collected in US20240189233A1, “POWDERY PREPARATION AND METHOD FOR MANUFACTURING SAME” (ICHIMARU PHARCOS CO., LTD., priority 2021, published 2024).

System: human breast cancer cells
Conditions: Cheng W L et al. (2011)

In the case of `C=C[C@H](O)C#CC#C[C@H](O)/C=C\CC/C=C\C` [araliadiol], the growth inhibitory activity is given as “growth inhibitory activity”.
